Laboratory results: article PMC3700073, “Synthesis and Biological Activity of New Thiopyrano[2,3-d]thiazoles Containing a Naphthoquinone Moiety” (Scientia Pharmaceutica, 2013)

Experiments:
SF-268 (CNS cancer) = assay: NCI five-dose assay; format: cell-based; conditions: Homo sapiens, SF-268, SF-268, CNS cancer
PC-3 (prostate cancer) = assay: NCI five-dose assay; format: cell-based; conditions: Homo sapiens
LOX IMVI (melanoma) = assay: NCI five-dose assay; format: cell-based; conditions: Homo sapiens
KM12 (colon cancer) = assay: NCI five-dose assay; format: cell-based; conditions: Homo sapiens
K-562 (leukemia) = assay: NCI five-dose assay; format: cell-based; conditions: Homo sapiens, K562, K-562, leukemia
M14 (melanoma) = assay: NCI five-dose assay; format: cell-based; conditions: Homo sapiens
U251 (CNS cancer) = assay: NCI five-dose assay; format: cell-based; conditions: Homo sapiens, U-251, U251, CNS cancer
OVCAR-4 (ovarian cancer) = assay: NCI five-dose assay; format: cell-based; conditions: Homo sapiens, OVCAR-4, OVCAR-4, ovarian cancer
MALME-3M (melanoma) = assay: NCI five-dose assay; format: cell-based; conditions: Homo sapiens
UACC-62 (melanoma) = assay: NCI five-dose assay; format: cell-based; conditions: Homo sapiens, UACC-62, UACC-62, melanoma
SK-MEL-28 (melanoma) = assay: NCI five-dose assay; format: cell-based; conditions: Homo sapiens, SK-MEL-28, SK-MEL-28, melanoma
OVCAR-5 (ovarian cancer) = assay: NCI five-dose assay; format: cell-based; conditions: Homo sapiens, OVCAR-5, OVCAR-5, ovarian cancer
EKVX (NSCL cancer) = assay: NCI five-dose assay; format: cell-based; conditions: Homo sapiens
HOP-92 (NSCL cancer) = assay: NCI five-dose assay; format: cell-based; conditions: Homo sapiens, HOP-92, HOP-92, NSCL cancer
DU-145 (prostate cancer) = assay: NCI five-dose assay; format: cell-based; conditions: Homo sapiens, DU-145, DU-145, prostate cancer
[1] = system: MDA-MB-231/ATCC (breast cancer); assay: NCI five-dose assay; format: cell-based; conditions: Homo sapiens, MDA-MB-231, MDA-MB-231/ATCC
HL-60(TB) (leukemia) = assay: NCI five-dose assay; format: cell-based; conditions: Homo sapiens, HL-60, HL-60(TB)
NCI-H522 (NSCL cancer) = assay: NCI five-dose assay; format: cell-based; conditions: Homo sapiens
male mice = assay: Acute toxicity in vivo, median lethal dose; conditions: intraperitoneal, approximate LD50 (Litchfield and Wilcoxon)
Method: The synthesized compounds were evaluated for their approximate LD50 in male mice. The mice were kept under a constant temperature and humidity in sterile cages with water and food. The stock solutions of the compounds used in this study were prepared immediately before usage and injected intraperitoneally (ip). The LD50 values (Tab. 3) were calculated using the method described by Litchfield and Wilcoxon.
The median lethal dose (LD50), the dose of the selected compounds that causes 50% mortality in mice, was determined from dose–response curves with at least four doses by the method of Litchfield and Wilcoxon.

786-0 (renal cancer) = assay: NCI five-dose assay; format: cell-based; conditions: Homo sapiens, 786-0, 786-0, renal cancer
HOP-62 (NSCL cancer) = assay: NCI five-dose assay; format: cell-based; conditions: Homo sapiens, HOP-62, HOP-62, NSCL cancer
T-47D (breast cancer) = assay: NCI five-dose assay; format: cell-based; conditions: Homo sapiens, T47D
OVCAR-8 (ovarian cancer) = assay: NCI five-dose assay; format: cell-based; conditions: Homo sapiens, OVCAR-8, OVCAR-8, ovarian cancer
SK-MEL-5 (melanoma) = assay: NCI five-dose assay; format: cell-based, human; conditions: Homo sapiens, SK-MEL-5, SK-MEL-5, melanoma
MOLT-4 (leukemia) = assay: NCI five-dose assay; format: cell-based; conditions: Homo sapiens, MOLT-4, MOLT-4, leukemia
A498 (renal cancer) = assay: NCI five-dose assay; format: cell-based; conditions: Homo sapiens
SK-MEL-2 (melanoma) = assay: NCI five-dose assay; format: cell-based; conditions: Homo sapiens, SK-MEL-2, SK-MEL-2, melanoma
HCT-116 (colon cancer) = assay: NCI five-dose assay; format: cell-based; conditions: Homo sapiens, HCT-116, HCT-116, colon cancer
NCI-H226 (NSCL cancer) = assay: NCI five-dose assay; format: cell-based; conditions: Homo sapiens
CCRF-CEM (leukemia) = assay: NCI five-dose assay; format: cell-based; conditions: Homo sapiens
A549/ATCC (NSCL cancer) = assay: NCI five-dose assay; format: cell-based; conditions: Homo sapiens
OVCAR-3 (ovarian cancer) = assay: NCI five-dose assay; format: cell-based; conditions: Homo sapiens, OVCAR-3, OVCAR-3, ovarian cancer
[2] = system: NCI/ADR-RES (breast cancer); assay: NCI five-dose assay; format: cell-based; conditions: Homo sapiens
[3] = system: MDA-MB-435 (breast cancer); assay: NCI five-dose assay; format: cell-based; conditions: Homo sapiens, MDA-MB-435, MDA-MB-435, breast cancer
UO-31 (renal cancer) = assay: NCI five-dose assay; format: cell-based; conditions: Homo sapiens, UO-31, UO-31, renal cancer
ACHN (renal cancer) = assay: NCI five-dose assay; format: cell-based; conditions: Homo sapiens

`COc1cc(C2C3=C(Sc4[nH]c(=O)sc42)C(=O)c2ccccc2C3=O)ccc1O` (stereo not shown) [Compound 4i, 11-(4-Hydroxy-3-methoxyphenyl)-3,11-dihydro-2H-benzo[6,7]thiochromeno[2,3-d]-[1,3]thiazole-2,5,10-trione] gave a GI50 (SF-268 (CNS cancer)) of 2530 nM, a GI50 (SF-268 (CNS cancer); repeated testing) of 3300 nM and a GI50 (PC-3 (prostate cancer)) of 1980 nM. The GI50 (PC-3 (prostate cancer); repeated testing) was 2570 nM, the GI50 (LOX IMVI (melanoma)) was 160 nM and the GI50 (LOX IMVI (melanoma); repeated testing) was 250 nM. It also gave a GI50 (KM12 (colon cancer)) of 2250 nM, a GI50 (KM12 (colon cancer); repeated testing) of 2510 nM and a GI50 (K-562 (leukemia); repeated testing) of 1980 nM. It also gave a GI50 (K-562 (leukemia); result printed as symbol) of over 100000 nM, a GI50 (M14 (melanoma)) of 1250 nM and a GI50 (M14 (melanoma); repeated testing) of 1220 nM. It also gave a GI50 (U251 (CNS cancer)) of 1630 nM, a GI50 (U251 (CNS cancer); repeated testing) of 2210 nM and a GI50 (OVCAR-4 (ovarian cancer)) of 2190 nM. The GI50 (OVCAR-4 (ovarian cancer); repeated testing) was 1330 nM, the GI50 (MALME-3M (melanoma)) was 720 nM and the GI50 (MALME-3M (melanoma); repeated testing) was 1050 nM. For the same compound, the GI50 (UACC-62 (melanoma)) was 430 nM, the GI50 (UACC-62 (melanoma); repeated testing) was 1590 nM and the GI50 (SK-MEL-28 (melanoma)) was 1790 nM. For the same compound, the GI50 (SK-MEL-28 (melanoma); repeated testing) was 1410 nM, the GI50 (OVCAR-5 (ovarian cancer)) was 10.4 µM and the GI50 (OVCAR-5 (ovarian cancer); repeated testing) was 4.49 µM. It also gave a GI50 (EKVX (NSCL cancer)) of 3.24 µM, a GI50 (EKVX (NSCL cancer); repeated testing) of 4.03 µM and a GI50 (HOP-92 (NSCL cancer)) of 1440 nM. For the same compound, the GI50 (HOP-92 (NSCL cancer); repeated testing) was 2150 nM, the GI50 (DU-145 (prostate cancer)) was 510 nM and the GI50 (DU-145 (prostate cancer); repeated testing) was 930 nM. For the same compound, the GI50 [1] was 860 nM, the GI50 ([1]; repeated testing) was 1980 nM and the GI50 (HL-60(TB) (leukemia)) was 2010 nM. It also gave a GI50 (HL-60(TB) (leukemia); repeated testing) of 1260 nM, a GI50 (NCI-H522 (NSCL cancer)) of 1960 nM and a GI50 (NCI-H522 (NSCL cancer); repeated testing) of 2120 nM. It also gave an LD50ip (male mice) of 280 mg/kg, a GI50 (786-0 (renal cancer)) of 2.6 µM and a GI50 (786-0 (renal cancer); repeated testing) of 5.2 µM. The GI50 (HOP-62 (NSCL cancer)) was 400 nM, the GI50 (HOP-62 (NSCL cancer); repeated testing) was 3600 nM and the GI50 (T-47D (breast cancer)) was 2560 nM. For the same compound, the GI50 (OVCAR-8 (ovarian cancer)) was 2850 nM, the GI50 (OVCAR-8 (ovarian cancer); repeated testing) was 2050 nM and the GI50 (SK-MEL-5 (melanoma)) was 960 nM. It also gave a GI50 (SK-MEL-5 (melanoma); repeated testing) of 480 nM, a GI50 (MOLT-4 (leukemia)) of 2.77 µM and a GI50 (MOLT-4 (leukemia); repeated testing) of 3.67 µM. It also gave a GI50 (A498 (renal cancer)) of 1950 nM, a GI50 (A498 (renal cancer); repeated testing) of 2110 nM and a GI50 (SK-MEL-2 (melanoma)) of 2210 nM. It also gave a GI50 (SK-MEL-2 (melanoma); repeated testing) of 980 nM, a GI50 (HCT-116 (colon cancer)) of 3360 nM and a GI50 (HCT-116 (colon cancer); repeated testing) of 2460 nM. For the same compound, the GI50 (NCI-H226 (NSCL cancer)) was 1740 nM, the GI50 (NCI-H226 (NSCL cancer); repeated testing) was 2850 nM and the GI50 (CCRF-CEM (leukemia)) was 3190 nM. It also gave a GI50 (CCRF-CEM (leukemia); repeated testing) of 1840 nM, a GI50 (A549/ATCC (NSCL cancer)) of 1340 nM and a GI50 (A549/ATCC (NSCL cancer); repeated testing) of 650 nM. For the same compound, the GI50 (OVCAR-3 (ovarian cancer)) was 1030 nM, the GI50 (OVCAR-3 (ovarian cancer); repeated testing) was 570 nM and the GI50 [2] was 8.39 µM. The GI50 ([2]; repeated testing) was 4.5 µM, the GI50 [3] was 1380 nM and the GI50 ([3]; repeated testing) was 1480 nM. For the same compound, the GI50 (UO-31 (renal cancer)) was 3330 nM, the GI50 (UO-31 (renal cancer); repeated testing) was 570 nM and the GI50 (ACHN (renal cancer)) was 2950 nM. The GI50 (ACHN (renal cancer); repeated testing) was 1660 nM.
